# Columns and labels:
# Type in all cases: nucleic-acid assay
# Nucleic Acid [1] = assay: Stabilization of 5'-d[(G3T2A)3G3]-3' quadruplex DNA assessed as change in melting temperature at 10 uM by CD-spectrophotometry
# Nucleic Acid [2] = assay: Stabilization of 5'-d[(G3T2A)3G3]-3' quadruplex DNA assessed as change in melting temperature at 5 uM by CD-spectrophotometry
# Nucleic Acid [3] = assay: Binding affinity to 5'-d[(G3T2A)3G3]-3' quadruplex DNA by surface plasmon resonance
# Nucleic Acid [4] = assay: Stabilization of 5'-d[(G3T2A)3G3]-3' quadruplex DNA assessed as change in melting temperature at 20 uM by CD-spectrophotometry
# Nucleic Acid [5] = assay: Stabilization of 5'-d[(AT)10]-3' duplex DNA assessed as melting temperature at 20 uM by CD-spectrophotometry
ΔTm (Nucleic Acid [1]),ΔTm (Nucleic Acid [2]),Kd (Nucleic Acid [3]),ΔTm (Nucleic Acid [4]),Tm (Nucleic Acid [5]),Compound
14.6 °C,2.5 °C,0.23 µM,15.3 °C,57 °C,NCCCCNc1ccnc2c1ccc1c(NCCCCN)ccnc12
–,–,–,1.3 °C,–,Nc1ccnc2c1ccc1c(N)ccnc12
14.7 °C,6.1 °C,0.33 µM,17.3 °C,63 °C,N=C(N)NCCCCNc1ccnc2c1ccc1c(NCCCCNC(=N)N)ccnc12
8.8 °C,1.8 °C,0.82 µM,10.5 °C,–,CN(C)CCNc1ccnc2c1ccc1c(NCCN(C)C)ccnc12

# More lines, now with the values behind:
Compound,ΔTm (Nucleic Acid [1]),ΔTm (Nucleic Acid [2]),Kd (Nucleic Acid [3]),ΔTm (Nucleic Acid [4]),Tm (Nucleic Acid [5])
CN(C)CCCCNc1ccnc2c1ccc1c(NCCCCN(C)C)ccnc12,13 °C,2.3 °C,0.33 µM,14.4 °C,–
c1cnc2c(c1)ccc1cccnc12,–,–,–,0 °C,–
Cc1ccnc2c1ccc1c(C)ccnc12,–,–,–,0.1 °C,–
N=C(N)NCCCNc1ccnc2c1ccc1c(NCCCNC(=N)N)ccnc12,14.2 °C,6 °C,0.41 µM,16.6 °C,–
NCCNc1ccnc2c1ccc1c(NCCN)ccnc12,7.6 °C,2 °C,0.72 µM,9.9 °C,–
CN(C)CCCNc1ccnc2c1ccc1c(NCCCN(C)C)ccnc12,10.6 °C,1.9 °C,0.3 µM,13.3 °C,–
NCCCNc1ccnc2c1ccc1c(NCCCN)ccnc12,10.6 °C,2.4 °C,0.45 µM,13.1 °C,–
N=C(N)NCCNc1ccnc2c1ccc1c(NCCNC(=N)N)ccnc12,9.9 °C,3 °C,0.4 µM,13.7 °C,–

# Reference: ChEMBL document CHEMBL1153095, “Design, synthesis and evaluation of 4,7-diamino-1,10-phenanthroline G-quadruplex ligands” (Bioorg Med Chem, 2009)
